Like-named read-outs stand apart in the source and are kept apart here. Residues, ends and D or L forms follow the SMILES beside them.
Experiments:
[1] = test system: Trypsin, Chymotrypsin and Proteinase K; assay: Proteolytic stability (incubation with proteases or in Human Serum); assay type: in vitro ADME
Protocol: Proteolytic stability studies were performed by peptides incubation with proteases (such as Trypsin, Chymotrypsin and Proteinase K) or in Human Serum as described earlier (See Karoyan et al. J. Med. Chem. 2016).

[2] = test system: B-chronic lymphocytic leukemia (CLL) primary cells; conditions: cited from earlier work; for induction of caspase-independent PCD: soluble peptide, CLL primary cells
[3] = test system: MCF-7, HCT-116, BxPC3 and A549 cancer cells; assay: Cell viability and proliferation of tumor cells (cytotoxic assay and direct cell counting); assay type: cell-based, human; conditions: for viability in all cell strains: 2 hours, 10 to 50 μM peptide concentration
Protocol: The effects of several cyclic peptides of the invention on the proliferation of tumor cells were evaluated on 5 cell lines (MCF-7, human breast cancer cells; HCT-116, human colon cancer cells; BxPC3, human pancreas cancer cells and A549, human lung cancer cells) by cytotoxic assay and by counting directly the number of cells.
Those cyclic peptides were dissolved in DMSO at the following concentrations: 0, 5, 10, 25, 50 and 100 μM.
Culture media used for these assays are: EMEM=10% SVF for MCF-7 and Wi38; RPMI […] SVF for HCT-116 and BxPC3 and F-12K=10% SVF for A549.
500 cells were seeded in 96-well plates, incubated at 37° C. for 24 hours, and treated by the cyclic peptides at the different concentrations and controls for 2 h.

HCT-116 cells = assay type: cell-based, human; conditions: for Early Apoptosis, Mean (%) / Late apoptosis, Mean (%): HCT-116 cells; for Early Apoptosis, Mean (%) / Late apoptosis, Mean (%) / Viable, Mean (%): 2 h; for Viable, Mean (%): human
Protocol: 2.2.2. Cell Death Analysis by Flow Cytometry
To detect possible apoptotic processes, cells were seeded in 35 mm dishes and cultured in media containing each tested cyclic peptide for 2 hours following procedure A or B.
Procedure B: Peptides were incubated for 2 hours on HCT-116 cells. Superkiller Trail (ALX-201-115C-010) was used as a positive pro-apoptotic control. Cells were analyzed by cytofluorometry using FITC Annexin V apoptosis detection kit with 7-AAD from BIOLEGEND (BLE640922).

[4] = peptide concentration 12.5 (μM)

Compound	stability toward proteases [1]	Early Apoptosis, Mean (%) (HCT-116 cells; [4])	Late apoptosis, Mean (%) (HCT-116 cells; [4])	Early Apoptosis, Mean (%) (HCT-116 cells; peptide concentration 25 (μM))	Late apoptosis, Mean (%) (HCT-116 cells; peptide concentration 25 (μM))	Early Apoptosis, Mean (%) (HCT-116 cells; peptide concentration 50 (μM))	Late apoptosis, Mean (%) (HCT-116 cells; peptide concentration 50 (μM))	Viable, Mean (%) (HCT-116 cells; 12.5 μM)	Viable, Mean (%) (HCT-116 cells; 25 μM)	Viable, Mean (%) (HCT-116 cells; 50 μM)	also measured
CCCC[C@@H]1NC(=O)[C@H](C(C)C)NC(=O)[C@H](C(C)C)NC(=O)[C@H](Cc2ccc(O)cc2)NC(=O)[C@H](Cc2ccccc2)NC(=O)[C@H](C(C)C)NC(=O)[C@H](C(C)C)NC(=O)[C@H](CCCCN)NC(=O)[C@H](C(C)C)NC(=O)[C@H](CO)NC(=O)[C@H](CC(C)C)NC(=O)[C@@H]2CCCN2C(=O)[C@H]2CCCN2C(=O)[C@H](Cc2c[nH]c3ccccc23)NC1=O [PKD9, —F—Y—V—V—X—W—p—P—L—S—V—K—V—V— X = NLe] (HELM PEPTIDE1{L.S.V.K.V.V.F.Y.V.V.[Nle].W.[dP].P}$PEPTIDE1,PEPTIDE1,1:R1-14:R2$$$V2.0)	fully stable										
KRFYGGMWKK [Peptide 4NGG, linear negative control peptide, 4N1K mutated in two amino acids]											induction of caspase-independent PCD [2]: unable to induce PCD
CSCC[C@@H]1NC(=O)[C@H](C(C)C)NC(=O)[C@H](C(C)C)NC(=O)[C@H](Cc2ccc(O)cc2)NC(=O)[C@H](Cc2ccccc2)NC(=O)[C@H](CCCNC(=N)N)NC(=O)[C@H](CC(N)=O)NC(=O)[C@H](C(C)C)NC(=O)[C@H](C(C)C)NC(=O)[C@H](CCCCN)NC(=O)[C@H](C(C)C)NC(=O)[C@H](CO)NC(=O)[C@H](CC(C)C)NC(=O)CNC(=O)[C@H](CO)NC(=O)[C@@H]2CCCN2C(=O)[C@H]2CCCN2C(=O)[C@H](CCC(N)=O)NC(=O)[C@H](CCCCN)NC(=O)[C@H](Cc2c[nH]c3ccccc23)NC1=O [PKTD12, —R—F—Y—V—V—M—W—K—Q—p—P—S—G—L—S—V—K—V—V—N—] (HELM PEPTIDE1{R.F.Y.V.V.M.W.K.Q.[dP].P.S.G.L.S.V.K.V.V.N}$PEPTIDE1,PEPTIDE1,1:R1-20:R2$$$V2.0)		5.78%	3.11%	7.15%	3.26%	19.16%	6.80%	90.87%	89.42%	73.78%	viability in all cell strains [3]: dose-dependent viability decrease
K-RFYVVMWK-K (KRFYVVMWKK; listed as Homo sapiens) [Peptide 4N1K, soluble decapeptide that mimics the C-terminal domain of TSP-1]											selective elimination of leukemic B-cells versus healthy B-lymphocytes or resting normal B-cells from CLL patients ([2]; CD47 ligation): specifically eliminates leukemic B-cells; induction of caspase-independent PCD [2]: induces caspase-independent PCD
CSCC[C@@H]1NC(=O)[C@H](C(C)C)NC(=O)[C@H](C(C)C)NC(=O)[C@H](Cc2ccc(O)cc2)NC(=O)[C@H](Cc2ccccc2)NC(=O)[C@H](CCCNC(=N)N)NC(=O)[C@H](CO)NC(=O)[C@H](CO)NC(=O)[C@H](CC(N)=O)NC(=O)[C@H](C(C)C)NC(=O)[C@H](C(C)C)NC(=O)[C@H](CCCCN)NC(=O)[C@H](C(C)C)NC(=O)[C@H](C)NC(=O)[C@H](CC(C)C)NC(=O)CNC(=O)[C@@H]2CCCN2C(=O)[C@H]2CCCN2C(=O)[C@H](CCCCN)NC(=O)[C@H](Cc2c[nH]c3ccccc23)NC1=O [PKTD10-3, —S—R—F—Y—V—V—M—W—K—p—P—G—L—A—V—K—V—V—N—S—] (HELM PEPTIDE1{S.R.F.Y.V.V.M.W.K.[dP].P.G.L.A.V.K.V.V.N.S}$PEPTIDE1,PEPTIDE1,1:R1-20:R2$$$V2.0)		8.17%	4.35%	13.16%	7.06%	13.13%	6.85%	86.83%	79.30%	79.67%	viability in all cell strains [3]: dose-dependent viability decrease
CC(C)C[C@@H]1NC(=O)[C@@H]2CCCN2C(=O)[C@H]2CCCN2C(=O)[C@H](Cc2c[nH]c3ccccc23)NC(=O)[C@H](CCCCN)NC(=O)[C@H](C(C)C)NC(=O)[C@H](C(C)C)NC(=O)[C@H](Cc2ccc(O)cc2)NC(=O)[C@H](Cc2ccccc2)NC(=O)[C@H](C(C)C)NC(=O)[C@H](C(C)C)NC(=O)[C@H](CCCCN)NC(=O)[C@H](C(C)C)NC(=O)[C@H](CO)NC1=O [PKD10, —F—Y—V—V—K—W—p—P—L—S—V—K—V—V—] (HELM PEPTIDE1{L.S.V.K.V.V.F.Y.V.V.K.W.[dP].P}$PEPTIDE1,PEPTIDE1,1:R1-14:R2$$$V2.0)	fully stable										
CSCC[C@@H]1NC(=O)[C@H](C(C)C)NC(=O)[C@H](C(C)C)NC(=O)[C@H](Cc2ccc(O)cc2)NC(=O)[C@H](Cc2ccccc2)NC(=O)[C@H](C(C)C)NC(=O)[C@H](C(C)C)NC(=O)[C@H](CCCCN)NC(=O)[C@H](C(C)C)NC(=O)[C@H](CO)NC(=O)[C@H](CC(C)C)NC(=O)[C@@H]2CCCN2C(=O)[C@H]2CCCN2C(=O)[C@H](Cc2c[nH]c3ccccc23)NC1=O [PKD8, —F—Y—V—V—M—W—p—P—L—S—V—K—V—V—] (HELM PEPTIDE1{L.S.V.K.V.V.F.Y.V.V.M.W.[dP].P}$PEPTIDE1,PEPTIDE1,1:R1-14:R2$$$V2.0)	fully stable										
CSCC[C@@H]1NC(=O)[C@H](C(C)C)NC(=O)[C@H](C(C)C)NC(=O)[C@H](Cc2ccc(O)cc2)NC(=O)[C@H](Cc2ccccc2)NC(=O)[C@H](CCCNC(=N)N)NC(=O)[C@H](CCCCN)NC(=O)[C@H](Cc2c[nH]c3ccccc23)NC1=O [PKC1, reference compound]		4.54%	2.25%	4.55%	2.56%	4.98%	2.75%	92.95%	92.72%	92.15%	efficiency in inducing cell death on cancer cell lines ([3]; MCF-7, HCT-116, BxPC3, A549): no potency in inducing cell death; efficacy in triggering PCD (HCT-116 cells; from 12.5 to 50 μM): no efficacy

Source: patent publication US11306124B2, “Agonist agents of CD47 inducing programmed cell death and their use in the treatments of diseases associated with defects in programmed cell death” (SORBONNE UNIVERSITE, priority 2016, dated 2022)
